# Results reported in ChEMBL document CHEMBL6177941, “Recent advances from computer-aided drug design to artificial intelligence drug design” (RSC Med Chem, 2024).
# Key:
# [1] = molecular target: 5-hydroxytryptamine receptor 2A (Homo sapiens, UniProt P28223); assay: Agonist activity at human 5-HT2A receptor expressed in HEK293 cells incubated for 60 mins by BRET assay
# [2] = Inhibition of Poly-L-Histidine tagged full length recombinant Trypanosoma cruzi Sir2p extracted from Escherichia coli BL21 (DE) using Abz-Gly-Pro-AcetylLys-Ser-Gln-EDDnp peptide as substrate incubated for 30 mins by fluorescence based analysis
# VCaP = assay: Antiproliferative activity against human VCaP cells expressing ERG level assessed as reduction in cell viability incubated for 72 hrs by CCK8 assay
# Acinetobacter baumannii = assay: microbe, parasite or virus in culture; details: ATCC 17978
# Description: Antibacterial activity against Acinetobacter baumannii ATCC 17978
# Escherichia coli = assay: Antibacterial activity against Escherichia coli
# Speckle-type POZ protein = Speckle-type POZ protein (Homo sapiens, UniProt O43791)
# Chain of Speckle-type POZ protein (O43791 whole entry): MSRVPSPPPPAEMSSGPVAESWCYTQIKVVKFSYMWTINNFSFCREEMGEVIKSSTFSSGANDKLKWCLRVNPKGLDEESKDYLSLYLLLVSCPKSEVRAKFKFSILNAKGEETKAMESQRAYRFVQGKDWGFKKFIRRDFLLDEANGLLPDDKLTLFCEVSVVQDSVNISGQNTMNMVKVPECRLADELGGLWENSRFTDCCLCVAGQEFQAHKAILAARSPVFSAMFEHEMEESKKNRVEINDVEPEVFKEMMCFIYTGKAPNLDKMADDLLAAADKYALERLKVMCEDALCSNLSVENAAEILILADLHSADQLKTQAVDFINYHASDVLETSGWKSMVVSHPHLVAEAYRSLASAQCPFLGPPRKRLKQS
# MOLT-4 = assay: Antiproliferative activity against human MOLT-4 cells assessed as reduction in cell growth incubated for 72 hrs by Cell-titer glo luminescent cell viability assay; details: MOLT-4, 72 h
# [3] = molecular target: Epithelial discoidin domain-containing receptor 1 (Homo sapiens, UniProt Q08345)
# Chain of Epithelial discoidin domain-containing receptor 1 (Q08345 whole entry, the tested form may be a part): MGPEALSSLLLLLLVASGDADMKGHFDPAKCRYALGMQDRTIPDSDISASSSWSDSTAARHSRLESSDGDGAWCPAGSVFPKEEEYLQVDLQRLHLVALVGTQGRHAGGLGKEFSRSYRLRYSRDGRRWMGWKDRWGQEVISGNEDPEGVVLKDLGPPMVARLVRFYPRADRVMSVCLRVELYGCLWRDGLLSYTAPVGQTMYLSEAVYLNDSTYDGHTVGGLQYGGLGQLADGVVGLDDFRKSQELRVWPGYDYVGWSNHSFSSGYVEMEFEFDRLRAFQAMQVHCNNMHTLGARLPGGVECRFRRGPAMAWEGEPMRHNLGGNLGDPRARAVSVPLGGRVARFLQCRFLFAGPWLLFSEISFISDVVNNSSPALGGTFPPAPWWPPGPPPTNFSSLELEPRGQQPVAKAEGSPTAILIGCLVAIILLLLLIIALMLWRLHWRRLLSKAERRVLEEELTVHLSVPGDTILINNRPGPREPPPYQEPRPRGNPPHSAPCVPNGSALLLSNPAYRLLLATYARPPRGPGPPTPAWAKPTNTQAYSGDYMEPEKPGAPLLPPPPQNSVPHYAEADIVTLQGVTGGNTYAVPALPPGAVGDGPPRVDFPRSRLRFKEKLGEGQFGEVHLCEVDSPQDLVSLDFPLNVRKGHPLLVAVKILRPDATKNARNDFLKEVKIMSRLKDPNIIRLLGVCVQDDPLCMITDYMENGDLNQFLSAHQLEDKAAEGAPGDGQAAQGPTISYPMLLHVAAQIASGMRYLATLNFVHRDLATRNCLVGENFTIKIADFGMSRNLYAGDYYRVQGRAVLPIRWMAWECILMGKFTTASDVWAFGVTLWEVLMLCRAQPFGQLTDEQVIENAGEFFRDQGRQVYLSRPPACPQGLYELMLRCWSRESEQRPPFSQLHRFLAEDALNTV
# [4] = molecular target: Rho-associated protein kinase 1 (Homo sapiens, UniProt Q13464)
# Chain of Rho-associated protein kinase 1 (Q13464 whole entry): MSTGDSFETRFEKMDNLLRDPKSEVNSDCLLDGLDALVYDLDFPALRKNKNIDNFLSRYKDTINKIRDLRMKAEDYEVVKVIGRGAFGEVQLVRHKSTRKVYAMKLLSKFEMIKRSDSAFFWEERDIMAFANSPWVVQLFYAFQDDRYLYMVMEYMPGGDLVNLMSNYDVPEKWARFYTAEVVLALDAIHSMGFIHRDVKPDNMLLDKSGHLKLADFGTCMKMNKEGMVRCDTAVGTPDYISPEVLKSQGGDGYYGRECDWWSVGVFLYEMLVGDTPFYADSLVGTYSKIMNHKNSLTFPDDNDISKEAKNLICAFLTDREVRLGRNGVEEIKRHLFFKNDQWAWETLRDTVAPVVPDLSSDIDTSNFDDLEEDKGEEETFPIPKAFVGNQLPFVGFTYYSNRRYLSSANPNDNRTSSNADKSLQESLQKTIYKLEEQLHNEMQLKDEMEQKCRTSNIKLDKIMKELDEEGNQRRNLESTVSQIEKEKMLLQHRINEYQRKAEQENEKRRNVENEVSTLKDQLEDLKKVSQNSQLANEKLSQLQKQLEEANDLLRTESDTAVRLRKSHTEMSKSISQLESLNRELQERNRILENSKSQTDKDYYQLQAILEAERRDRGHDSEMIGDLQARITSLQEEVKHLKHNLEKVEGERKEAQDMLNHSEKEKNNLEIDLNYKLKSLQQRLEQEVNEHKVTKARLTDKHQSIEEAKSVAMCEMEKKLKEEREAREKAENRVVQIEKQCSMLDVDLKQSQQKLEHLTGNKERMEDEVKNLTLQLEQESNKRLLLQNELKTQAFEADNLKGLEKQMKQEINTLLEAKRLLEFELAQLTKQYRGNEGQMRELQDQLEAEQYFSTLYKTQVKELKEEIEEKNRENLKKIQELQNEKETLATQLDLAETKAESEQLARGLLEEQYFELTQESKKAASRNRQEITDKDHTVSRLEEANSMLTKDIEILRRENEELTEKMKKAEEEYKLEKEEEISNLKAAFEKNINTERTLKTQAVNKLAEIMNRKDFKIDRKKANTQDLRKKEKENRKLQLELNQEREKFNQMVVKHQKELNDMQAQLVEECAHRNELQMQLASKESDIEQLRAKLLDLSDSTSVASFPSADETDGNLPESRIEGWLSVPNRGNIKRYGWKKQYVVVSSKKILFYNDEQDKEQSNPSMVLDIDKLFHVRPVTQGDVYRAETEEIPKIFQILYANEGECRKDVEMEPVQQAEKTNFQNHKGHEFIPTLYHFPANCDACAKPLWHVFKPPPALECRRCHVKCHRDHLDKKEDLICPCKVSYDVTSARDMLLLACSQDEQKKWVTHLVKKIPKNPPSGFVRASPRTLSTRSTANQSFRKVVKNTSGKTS
# Description: Binding affinity to N-terminal GST-tagged human ROCK1 catalytic domain (1 to 477 residues) expressed in Sf21 insect cells assessed as inhibition constant by NanoBRET intracellular kinase assay
# [5] = molecular target: Tyrosine-protein kinase JAK2 (Homo sapiens, UniProt O60674); assay: Inhibition of JAK2 (unknown origin) by Z'-LYTE kinase assay
# Chain of Tyrosine-protein kinase JAK2 (O60674 whole entry, the tested form may be a part): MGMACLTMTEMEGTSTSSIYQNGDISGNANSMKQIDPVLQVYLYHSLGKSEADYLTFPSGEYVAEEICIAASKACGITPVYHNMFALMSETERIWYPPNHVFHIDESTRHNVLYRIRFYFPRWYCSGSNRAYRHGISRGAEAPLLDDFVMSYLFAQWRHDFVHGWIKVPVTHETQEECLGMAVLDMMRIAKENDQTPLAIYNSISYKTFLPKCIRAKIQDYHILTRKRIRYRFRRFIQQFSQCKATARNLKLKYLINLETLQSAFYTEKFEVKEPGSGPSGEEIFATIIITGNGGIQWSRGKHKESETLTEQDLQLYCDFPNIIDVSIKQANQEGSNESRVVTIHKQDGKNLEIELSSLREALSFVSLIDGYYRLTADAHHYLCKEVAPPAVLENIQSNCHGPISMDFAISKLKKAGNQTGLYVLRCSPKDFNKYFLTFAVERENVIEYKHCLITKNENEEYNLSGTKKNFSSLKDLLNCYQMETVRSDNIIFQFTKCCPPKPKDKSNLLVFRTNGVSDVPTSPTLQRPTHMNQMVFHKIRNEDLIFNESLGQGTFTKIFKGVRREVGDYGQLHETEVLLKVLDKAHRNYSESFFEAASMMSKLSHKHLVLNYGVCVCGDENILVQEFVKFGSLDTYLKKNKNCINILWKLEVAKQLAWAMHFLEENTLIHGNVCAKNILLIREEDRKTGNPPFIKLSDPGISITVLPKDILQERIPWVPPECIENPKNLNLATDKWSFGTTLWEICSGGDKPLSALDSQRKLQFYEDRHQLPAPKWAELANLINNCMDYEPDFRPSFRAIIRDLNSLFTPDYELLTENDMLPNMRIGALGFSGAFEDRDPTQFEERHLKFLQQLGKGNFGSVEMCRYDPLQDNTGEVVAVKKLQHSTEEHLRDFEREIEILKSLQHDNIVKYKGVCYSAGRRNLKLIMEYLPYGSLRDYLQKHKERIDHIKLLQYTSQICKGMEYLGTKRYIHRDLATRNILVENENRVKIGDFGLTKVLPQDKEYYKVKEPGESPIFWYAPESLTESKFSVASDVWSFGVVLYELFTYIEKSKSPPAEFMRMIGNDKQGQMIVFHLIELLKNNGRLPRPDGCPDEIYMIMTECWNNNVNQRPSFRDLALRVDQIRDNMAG
# Androgen receptor = molecular target: T1, Androgen receptor (Homo sapiens, UniProt P10275); assay: Inhibition of full length human Androgen receptor DNA binding domain dimerization
# T1 sequence (P10275 whole entry): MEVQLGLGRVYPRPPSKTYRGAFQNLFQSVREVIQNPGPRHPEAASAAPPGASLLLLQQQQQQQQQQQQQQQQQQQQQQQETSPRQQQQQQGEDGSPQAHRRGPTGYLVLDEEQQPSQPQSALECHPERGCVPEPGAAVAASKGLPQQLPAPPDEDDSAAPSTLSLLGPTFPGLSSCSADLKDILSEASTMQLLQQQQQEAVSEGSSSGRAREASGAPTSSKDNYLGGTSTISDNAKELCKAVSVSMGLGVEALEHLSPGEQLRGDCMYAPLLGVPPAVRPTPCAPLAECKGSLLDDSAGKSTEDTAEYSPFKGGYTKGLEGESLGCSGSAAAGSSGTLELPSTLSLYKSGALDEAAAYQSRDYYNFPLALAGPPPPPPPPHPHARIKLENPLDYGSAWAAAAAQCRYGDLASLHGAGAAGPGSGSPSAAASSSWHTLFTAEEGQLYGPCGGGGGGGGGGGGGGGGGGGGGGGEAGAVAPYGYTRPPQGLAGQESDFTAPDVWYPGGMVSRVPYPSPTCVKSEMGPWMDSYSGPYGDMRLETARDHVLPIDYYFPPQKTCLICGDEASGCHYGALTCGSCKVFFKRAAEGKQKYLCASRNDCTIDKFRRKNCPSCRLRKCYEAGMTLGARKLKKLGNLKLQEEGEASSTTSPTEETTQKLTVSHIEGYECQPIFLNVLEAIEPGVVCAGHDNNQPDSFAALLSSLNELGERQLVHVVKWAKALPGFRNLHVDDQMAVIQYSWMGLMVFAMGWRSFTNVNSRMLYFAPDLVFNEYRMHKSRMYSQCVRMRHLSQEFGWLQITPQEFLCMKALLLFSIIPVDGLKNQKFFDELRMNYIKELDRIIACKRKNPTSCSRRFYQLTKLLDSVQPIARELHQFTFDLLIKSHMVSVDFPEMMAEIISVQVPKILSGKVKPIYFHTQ
# [6] = molecular target: T2, Serine/threonine-protein kinase Sgk3 (Homo sapiens, UniProt Q96BR1); assay: Inhibition of SGK3 (unknown origin)
# T2 sequence (Q96BR1 whole entry): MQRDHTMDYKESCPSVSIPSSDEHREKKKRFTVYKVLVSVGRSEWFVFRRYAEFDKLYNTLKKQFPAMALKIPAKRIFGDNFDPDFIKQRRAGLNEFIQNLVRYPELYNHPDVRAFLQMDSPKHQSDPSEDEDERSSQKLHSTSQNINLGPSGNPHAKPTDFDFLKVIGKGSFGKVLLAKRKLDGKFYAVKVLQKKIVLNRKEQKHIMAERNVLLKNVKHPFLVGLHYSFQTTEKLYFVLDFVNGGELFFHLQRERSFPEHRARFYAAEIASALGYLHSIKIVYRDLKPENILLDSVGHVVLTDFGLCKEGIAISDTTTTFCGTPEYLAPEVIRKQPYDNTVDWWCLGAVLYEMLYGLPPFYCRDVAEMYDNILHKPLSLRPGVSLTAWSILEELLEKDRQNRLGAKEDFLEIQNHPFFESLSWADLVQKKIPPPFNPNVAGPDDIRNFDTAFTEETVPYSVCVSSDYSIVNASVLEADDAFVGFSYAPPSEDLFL
# [7] = molecular target: Myeloid differentiation primary response protein MyD88 (Homo sapiens, UniProt Q99836); assay: Binding affinity to MYD88 Toll/interleukin-1 receptor domain (unknown origin) assessed as dissociation constant by SPR assay
# Chain of Myeloid differentiation primary response protein MyD88 (Q99836 whole entry, the tested form may be a part): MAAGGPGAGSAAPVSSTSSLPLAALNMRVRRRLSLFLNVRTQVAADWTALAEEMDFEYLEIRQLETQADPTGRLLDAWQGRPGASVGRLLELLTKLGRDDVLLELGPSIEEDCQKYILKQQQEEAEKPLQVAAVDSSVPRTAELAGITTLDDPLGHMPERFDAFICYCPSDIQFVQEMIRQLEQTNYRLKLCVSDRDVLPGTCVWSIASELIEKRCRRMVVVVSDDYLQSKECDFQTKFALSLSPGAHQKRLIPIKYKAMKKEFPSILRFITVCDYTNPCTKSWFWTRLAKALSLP
# Cannabinoid receptor 2 = Cannabinoid receptor 2 (Homo sapiens, UniProt P34972); assay: Binding affinity to human CB2 receptor assessed as inhibition constant
# Chain of Cannabinoid receptor 2 (P34972 whole entry): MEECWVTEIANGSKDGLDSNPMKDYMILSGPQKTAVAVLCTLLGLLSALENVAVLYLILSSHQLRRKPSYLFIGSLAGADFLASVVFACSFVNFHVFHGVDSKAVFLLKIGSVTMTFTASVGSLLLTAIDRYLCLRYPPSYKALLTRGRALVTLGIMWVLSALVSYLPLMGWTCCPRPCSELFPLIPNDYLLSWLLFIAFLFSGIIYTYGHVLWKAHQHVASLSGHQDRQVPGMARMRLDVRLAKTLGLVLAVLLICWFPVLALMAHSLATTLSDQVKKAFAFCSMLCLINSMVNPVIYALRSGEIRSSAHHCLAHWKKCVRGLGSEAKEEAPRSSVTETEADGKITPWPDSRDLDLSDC
# Staphylococcus aureus [8] = assay: microbe, parasite or virus in culture; details: ATCC 35556, 24 h
# Description: Antibacterial activity against wild type Staphylococcus aureus ATCC 35556 assessed as reduction in bacterial growth incubated for 24 hrs by CLSI protocol based broth micro-dilution method
# Staphylococcus aureus [9] = assay: microbe, parasite or virus in culture; details: ATCC 43300, 24 h
# Description: Antibacterial activity against methicillin-resistant Staphylococcus aureus ATCC 43300 assessed as reduction in bacterial growth incubated for 24 hrs by CLSI protocol based broth micro-dilution method
# Chain of 5-hydroxytryptamine receptor 2A (P28223 whole entry): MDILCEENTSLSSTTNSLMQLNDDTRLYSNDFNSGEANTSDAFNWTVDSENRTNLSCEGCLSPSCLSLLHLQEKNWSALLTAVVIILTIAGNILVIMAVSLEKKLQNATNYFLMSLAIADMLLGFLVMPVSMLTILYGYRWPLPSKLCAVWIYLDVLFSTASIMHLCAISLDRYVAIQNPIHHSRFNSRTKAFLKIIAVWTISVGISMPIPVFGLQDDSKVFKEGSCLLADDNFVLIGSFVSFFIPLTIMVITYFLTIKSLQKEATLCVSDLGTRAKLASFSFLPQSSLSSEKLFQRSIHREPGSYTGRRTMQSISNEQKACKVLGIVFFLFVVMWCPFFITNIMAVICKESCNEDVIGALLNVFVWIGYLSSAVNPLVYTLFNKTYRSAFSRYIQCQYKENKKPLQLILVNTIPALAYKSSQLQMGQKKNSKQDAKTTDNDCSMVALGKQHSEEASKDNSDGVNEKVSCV
structure (smiles),measurement,setting,value
C[C@@H]1C=C(c2c[nH]c3ncccc23)CN(C)C1,EC50,[1],110 nM
O=C(NCc1coc(-c2ccccc2)n1)Nc1ccc(-c2noc(C(F)(F)F)n2)cc1,IC50,[2],40000 nM
O=C(N/N=C/c1ccc([N+](=O)[O-])o1)c1ccc(O)cc1 [NIFUROXAZIDE],IC50,VCaP,2560 nM
O=C1Nc2ccccc2C2(CCN(CCc3ccc(C(F)(F)F)cc3)CC2)O1,MIC,Acinetobacter baumannii,2 µg/mL
Nc1nnc(Sc2ncc([N+](=O)[O-])s2)s1,MIC,Escherichia coli,2 µg/mL
Cc1nnc(SCC2=C(C(=O)O)N3C(=O)[C@@H](NC(=O)c4ccc(COc5ccccc5Cl)o4)[C@H]3SC2)s1,IC50,Speckle-type POZ protein,4510 nM
COCc1cccc(CC(=O)Nc2ccc(-c3cn[nH]c3)cc2)c1,IC50,MOLT-4,116 nM
same,IC50,[3],10 nM
same,Ki,[4],38 nM
same,IC50,[5],70 nM
O=C(NCc1cccc2ccccc12)NCC(O)(c1cccs1)c1cccs1,IC50,Androgen receptor,2000 nM
CC(O)(CNC(=O)/C=C/c1ccnc2ccccc12)c1ccsc1 (configuration not stated),IC50,Androgen receptor,5000 nM
COc1ccc(/C=C/c2[nH]c(=O)[nH]c(=O)c2[N+](=O)[O-])cc1OC,IC50,[6],179000 nM
O=C(CN1CCC(CCc2ccccc2)CC1)Nc1n[nH]c2ncccc12,Kd,[7],165000 nM
COCC(C)(NC(=O)c1ccc(N2CCCCC2)c(S(=O)(=O)N2CCCCC2)c1)C1CC1 (configuration not stated),Ki,Cannabinoid receptor 2,0.9 nM
CC1(C)[C@H]2Cc3cc(-c4cc5c(cn4)[C@@H]4C[C@H](C5)C4(C)C)ncc3[C@@H]1C2,MIC,Staphylococcus aureus [8],8 µg/mL
same,MIC,Staphylococcus aureus [9],8 µg/mL
